Laboratory results published in patent US12123031B2, “Regulation of CRISPR-associated rossman fold (CARF) domain containing proteins by oligoadenylates” (VILNIUS UNIVERSITY, priority 2017, dated 2024).

What was measured:
ternary StCsm complex = target: T1, ternary StCsm complex (Streptococcus thermophilus, UniProt A0A0A7HFE1); test: StCsm mediated conversion of nucleoside triphosphates to reaction products (TLC); type: biochemical; conditions: 200 nM ternary StCsm, 50 μM nucleotide, 10 mM CoCl2, 37° C.
T1 construct: made in house; host or cells: Escherichia coli BL21 (DE3)
Method: StCsm mediated synthesis of cyclic oligoadenylates from ATP. The synthesis reactions of cyclic oligoadenylates by StCsm were initiated by adding 10 mM CoCl2 into a mix of 200 nM StCsm, 200 nM target RNA, 50 μM ATP and 10 nM α^32P-ATP in the Reaction buffer (33 mM Tris-acetate (pH 7.6 at 37° C.), 66 mM K-acetate, 0.1 mg/ml BSA) and carried out at 37° C. for 1 h or 1.5 h, unless stated otherwise. StCsm reactions on different nucleoside triphosphates contained 200 nM of ternary StCsm, 50 μM of the non-labeled nucleotide and 10 nM of the corresponding α^32P-nucleotide. The reactions were stopped by adding 15 mM EDTA. Reaction products were separated by TLC on PEI Cellulose F plates (Merck) in 0.5 M phosphate buffer (pH 3.5 at 23° C.) or a denaturating 24% (19:1 acrylamide:bis-acrylamide) PAAG and visualized using autoradiography.
(FIG. 1A) ATP reaction of an individual StCas10 subunit. The reactions contained 200 nM StCas10, 50 μM ATP, 10 nM α^32P-ATP (Perkin Elmer), 200 nM target RNA S3/2 and/or 5 nM M13 mp18 ssDNA. The assays were performed at 37° C. in the Reaction buffer supplemented with 10 mM CoCl2. Samples were analyzed by thin-layer chromatography (TLC), followed by phosphorimaging. Reaction products of the binary StCsm complex (Cas/Csm proteins plus crRNA) and ATP in the absence or in the presence of single-stranded (ss) DNA are presented in (FIG. 1B) and (FIG. 1C), respectively. Reaction products of the ternary StCsm complex (Cas/Csm proteins plus crRNA and target RNA) and ATP in the absence or in the presence of ssDNA are presented in (FIG. 1D) and (FIG. 1E), respectively. The reactions contained 200 nM of the binary or ternary StCsm, 50 μM ATP, 10 nM α^32P-ATP and 10 nM M13 mp18 ssDNA. The assays were performed at 37° C. in the Reaction buffer supplemented with 10 mM CoCl2 and the samples were analyzed by TLC, followed by phosphorimaging. Heating α^32P-ATP at 95° C. for 60 min was used to generate radiolabeled ADP and AMP, which were used as a TLC control (marked as lane M). Rate constants of ATP decay, which are presented bellow each TLC plate, were calculated by fitting single exponentials to the substrate depletion data. Cartoons above the graphs depict reaction components: protospacer is grey in between black lines, the complementary strand (matching spacer in crRNA) is lighter grey, DNA is a black circle.
(FIG. 3A) Cartoons above gels depict ternary StCsm complexes that differ in the bound target RNA molecules in the same manner as in FIG. 1. The agarose gels show degradation patterns of 1 nM of circular M13 mp18 ssDNA in the presence of 5 nM ternary StCsm complexes containing different RNAs FIG. 3A is reproduced from (1). All RNA substrates used here are bound and cleaved by the StCsm ribonuclease (2). (FIG. 3B) Reaction products of various ternary StCsm complexes with ATP. The reactions contained 200 nM of the ternary StCsm with different nucleic acids (NA), 50 μM ATP and 10 nM α^32P-ATP. The assays were performed at 37° C. in the Reaction buffer supplemented with 10 mM CoCl2 and the samples were analyzed by TLC, followed by phosphorimaging. Heating α^32P-ATP at 95° C. for 60 min was used to generate radiolabeled ADP and AMP, which were used as a TLC control (marked as lane M).
(A) Ternary StCsm complex was incubated with ATP, 2′dATP, 3′dATP, GTP, CTP or UTP radiolabeled nucleotides. The reactions contained 200 nM of the ternary StCsm, 50 μM of the non-labeled nucleotide and 10 nM of the corresponding α^32P-nucleotide. The assays were performed at 37° C. for 60 min in the Reaction buffer supplemented with 10 mM CoCl2 and samples were analyzed by TLC, followed by phosphorimaging. (B) The products of StCsm-mediated 2′dATP reaction were further analyzed by ion pair reverse-phase (RP) HPLC-MS. On the left panel, HPLC analysis is presented. On the right panels, the isotopic patterns of ions (without one, (M-H)-, or two (M-2H)2-protons) of the identified compounds are presented.

[1] = target: T2, StCsm complex (Palm domain of StCas10 subunit) (Streptococcus thermophilus, UniProt A0A0A7HFE1); test: Nucleotide binding assay (EMSA); conditions: for affinity towards nucleotide: EMSA, binary and ternary StCsm
T2 construct: made in house; host or cells: Escherichia coli BL21 (DE3)
Method: Nucleotide binding assay. Nucleotide binding assays were performed by incubating different amounts of StCsm complexes with 10 nM of ^32P-radiolabeled-nucleoside triphosphates in the Binding buffer (40 mM Tris, 20 mM acetic acid (pH 8.4 at 25° C.), 1 mM EDTA, 0.1 mg/ml BSA, 10% (v/v) glycerol). All reactions were incubated for 15 min at room temperature prior to electrophoresis on native 8% (w/v) polyacrylamide gel (PAAG). Electrophoresis was carried out at room temperature for 2 h at 6 V/cm using 40 mM Tris, 20 mM acetic acid (pH 8.4 at 25° C.), 0.1 mM EDTA as the running buffer. Gels were dried and visualized by a FLA-5100 phosphorimager (Fujifilm).
NTP binding by binary and ternary StCsm complexes was monitored using EMSA. The binding reactions contained 2 nM of α^32P-radiolabeled and 8 nM of the corresponding non-labeled nucleotide (ATP, 2′dATP, 3′dATP, GTP, UTP or CTP (Perkin Elmer)) in addition to the StCsm complex (without RNA, with the target RNA S3/2 or non-specific RNA NS, as denoted above the gels), at concentrations indicated by each lane. Samples were analyzed in PAAG under non-denaturing conditions.

StCsm6 = target: T3, StCsm6 (Streptococcus thermophilus, UniProt A0A0A7HIX6); test: Csm6 nuclease assay, StCsm6; type: biochemical; conditions: 1 mM ATP
T3 construct: HSH (StrepII tag plus two 6xHis tags) (N); made in house; host or cells: E. coli DH10B (ara)
T3 sequence (A0A0A7HIX6 1-428): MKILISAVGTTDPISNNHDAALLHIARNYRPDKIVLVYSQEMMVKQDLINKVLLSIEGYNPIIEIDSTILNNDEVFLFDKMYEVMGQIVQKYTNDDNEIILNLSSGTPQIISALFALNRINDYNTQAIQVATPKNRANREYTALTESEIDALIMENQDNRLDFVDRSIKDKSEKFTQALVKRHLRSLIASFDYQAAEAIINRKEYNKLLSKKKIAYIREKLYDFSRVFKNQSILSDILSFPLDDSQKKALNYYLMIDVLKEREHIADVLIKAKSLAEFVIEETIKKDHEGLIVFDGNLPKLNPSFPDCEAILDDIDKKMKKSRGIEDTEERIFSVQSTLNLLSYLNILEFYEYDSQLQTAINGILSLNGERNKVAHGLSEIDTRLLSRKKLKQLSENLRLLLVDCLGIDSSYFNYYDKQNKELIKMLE
Method: Csm6 nuclease assay. […] 5′P-oligoadenylates were obtained by incubating 3.(3) μM of non-phosphorylated linear oligoadenylate with 0.5 U T4 polynucleotide kinase and 1 mM ATP in the Reaction buffer A at 37° C. for 40 min.
Reactions were started by adding 0-10 μM Csm6 and carried out at 37° C. The reaction products were separated on a denaturing 15% (29:1 acrylamide:bis-acrylamide) PAAG and visualized by autoradiography. StCsm6 nuclease assays with ATP additionally contained 1 mM of ATP in the reaction mixture.
Samples were analyzed in denaturing PAAG, followed by phosphorimaging.

T2 sequence (A0A0A7HFE1 whole entry, the tested form may be a part): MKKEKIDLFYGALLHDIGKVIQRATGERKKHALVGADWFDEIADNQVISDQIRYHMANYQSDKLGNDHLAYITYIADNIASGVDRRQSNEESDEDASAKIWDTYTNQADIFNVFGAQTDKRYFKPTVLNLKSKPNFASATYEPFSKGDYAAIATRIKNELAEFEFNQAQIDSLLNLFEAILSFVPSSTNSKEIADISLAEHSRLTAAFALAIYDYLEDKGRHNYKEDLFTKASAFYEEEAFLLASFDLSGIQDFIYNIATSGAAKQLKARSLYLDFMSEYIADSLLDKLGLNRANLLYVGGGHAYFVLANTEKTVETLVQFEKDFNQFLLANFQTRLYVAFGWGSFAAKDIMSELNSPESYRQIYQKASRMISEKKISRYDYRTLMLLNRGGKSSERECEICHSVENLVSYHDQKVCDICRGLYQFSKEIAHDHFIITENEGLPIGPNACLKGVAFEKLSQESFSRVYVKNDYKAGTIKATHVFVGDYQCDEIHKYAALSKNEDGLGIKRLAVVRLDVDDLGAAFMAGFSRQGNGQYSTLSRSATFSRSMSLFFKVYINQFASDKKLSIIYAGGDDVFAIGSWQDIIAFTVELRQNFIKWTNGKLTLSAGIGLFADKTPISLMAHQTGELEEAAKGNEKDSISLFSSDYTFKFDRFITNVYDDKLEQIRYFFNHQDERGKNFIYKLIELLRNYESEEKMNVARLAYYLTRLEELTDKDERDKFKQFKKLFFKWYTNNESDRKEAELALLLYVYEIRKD
T2 sequence (A0A0A7HF79 whole entry, further chain, the tested form may be a part): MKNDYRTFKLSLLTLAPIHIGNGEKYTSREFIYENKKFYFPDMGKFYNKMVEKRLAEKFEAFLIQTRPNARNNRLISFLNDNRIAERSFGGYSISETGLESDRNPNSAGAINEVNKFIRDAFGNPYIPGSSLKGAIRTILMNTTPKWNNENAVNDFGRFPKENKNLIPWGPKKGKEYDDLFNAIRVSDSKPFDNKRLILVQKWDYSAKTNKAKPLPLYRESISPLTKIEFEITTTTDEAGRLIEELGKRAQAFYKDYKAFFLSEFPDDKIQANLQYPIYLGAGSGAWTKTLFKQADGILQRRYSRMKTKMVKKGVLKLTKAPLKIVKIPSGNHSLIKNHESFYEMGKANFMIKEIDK
T2 sequence (A0A0A7HIF0 whole entry, further chain, the tested form may be a part): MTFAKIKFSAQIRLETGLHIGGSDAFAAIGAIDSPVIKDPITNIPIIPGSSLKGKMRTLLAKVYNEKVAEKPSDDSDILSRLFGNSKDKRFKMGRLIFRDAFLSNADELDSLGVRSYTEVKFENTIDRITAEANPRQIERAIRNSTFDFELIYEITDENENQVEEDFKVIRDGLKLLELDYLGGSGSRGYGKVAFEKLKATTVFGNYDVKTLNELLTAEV
T2 sequence (A0A0A7HGA1 whole entry, further chain, the tested form may be a part): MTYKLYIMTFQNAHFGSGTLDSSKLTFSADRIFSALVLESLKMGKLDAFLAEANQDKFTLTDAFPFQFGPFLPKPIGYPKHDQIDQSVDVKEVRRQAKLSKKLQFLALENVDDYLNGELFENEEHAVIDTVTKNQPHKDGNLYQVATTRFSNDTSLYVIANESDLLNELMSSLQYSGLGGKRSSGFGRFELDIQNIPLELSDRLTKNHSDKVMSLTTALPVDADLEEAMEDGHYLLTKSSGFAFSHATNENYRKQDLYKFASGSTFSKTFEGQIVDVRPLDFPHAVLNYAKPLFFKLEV
T2 sequence (A0A0A7HIX1 whole entry, further chain, the tested form may be a part): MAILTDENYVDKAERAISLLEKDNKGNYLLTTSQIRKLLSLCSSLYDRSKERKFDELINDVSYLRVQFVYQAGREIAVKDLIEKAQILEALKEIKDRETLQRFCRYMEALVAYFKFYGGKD
T1 sequence (A0A0A7HFE1 whole entry): as the sequence (A0A0A7HFE1 whole entry, the tested form may be a part) above
T1 sequence (A0A0A7HGA1 whole entry, further chain): as the sequence (A0A0A7HGA1 whole entry, further chain, the tested form may be a part) above
T1 sequence (A0A0A7HIF0 whole entry, further chain): as the sequence (A0A0A7HIF0 whole entry, further chain, the tested form may be a part) above
T1 sequence (A0A0A7HIX1 whole entry, further chain): as the sequence (A0A0A7HIX1 whole entry, further chain, the tested form may be a part) above
T1 sequence (A0A0A7HF79 whole entry, further chain): as the sequence (A0A0A7HF79 whole entry, further chain, the tested form may be a part) above

Row | SMILES | reaction products formed from the nucleotide alone (ternary StCsm complex) | affinity towards nucleotide [1] | also measured
1 | Nc1ncnc2c1ncn2[C@H]1C[C@H](O)[C@@H](COP(=O)(O)OP(=O)(O)OP(=O)(O)O)O1 [2′dATP] | reacts with significantly lower efficiency |  | binding affinity, ternary StCsm complex ([1]; target RNA bound (ternary StCsm complex)): visibly decreases
2 | Nc1ncnc2c1ncn2[C@@H]1O[C@H](COP(=O)(O)OP(=O)(O)OP(=O)(O)O)C[C@H]1O [3′dATP] | does not produce any reaction products |  | 
3 | Nc1ncnc2c1ncn2[C@@H]1O[C@H](COP(=O)(O)O)[C@@H](O)[C@H]1O [AMP, adenosine monophosphate] | yields no products |  | 
4 | Nc1ncnc2c1ncn2[C@@H]1O[C@H](COP(=O)(O)OP(=O)(O)OP(=O)(O)O)[C@@H](O)[C@H]1O [ATP, adenosine triphosphate] |  |  | inhibition of StCsm6 RNase (StCsm6): inhibited; Kd ([1]; in the presence or absence of target RNA): 10 to 20 nM
5 | Nc1ccn([C@@H]2O[C@H](COP(=O)(O)OP(=O)(O)OP(=O)(O)O)[C@@H](O)[C@H]2O)c(=O)n1 [CTP] | no reaction products are formed | no significant affinity | 
6 | Nc1nc2c(ncn2[C@@H]2O[C@H](COP(=O)(O)OP(=O)(O)OP(=O)(O)O)[C@@H](O)[C@H]2O)c(=O)[nH]1 [GTP] | no reaction products are formed | no significant affinity | 
7 | O=c1ccn([C@@H]2O[C@H](COP(=O)(O)OP(=O)(O)OP(=O)(O)O)[C@@H](O)[C@H]2O)c(=O)[nH]1 [UTP] | no reaction products are formed | no significant affinity | 
